pIC50: −log10 of the molar value.
Biological target: T1, KRasG12C (Homo sapiens, UniProt P01116, G12C)
T1 construct: biotin (biotinylated); made in house
Experiment: KRasG12C functional assay (HTRF nucleotide exchange / Raf RBD binding)
Assay type: biochemical
Details: GDP loaded biotinylated KRasG12C, samples incubated 4 hrs, FRET readout; single experiment or average of two or more
Method: KRasG12C Functional Assay
All enzyme and substrate solutions were prepared in assay buffer containing 20 mM HEPES (pH 7.5), 5 mM MgCl2, 150 mM NaCl, and 0.01% Tween 20. […] In a separate mix 20 nM GST-Raf Ras binding domain (GST-Raf RBD, purified in house) and 4 μg/ml anti-GST XL665 antibody (Cisbio) was prepared in assay buffer containing 50 mM Potassium Fluoride and 0.05 mg/ml BSA and equilibrated for 4 hours before adding 0.6 μM Guanosine 5′-[γ-thio]triphosphate (GTPγS, Sigma) and 0.08 μM SOS (purified in house). 5 μl of the GST-RAF RBD mix was then dispensed into each well of the assay plate. […] This is detected simultaneously via the specific binding interaction between active GTPγS KRas^G12C with GST-Raf RBD which brings the europium and XL665 into close proximity enabling an increased FRET signal to be detected on a Pherastar (BMG) plate reader equipped with the HTRF filter module. […] IC50 values were calculated from normalised dose-response response FRET data curve fitted in Genedata screener (Basel, Switzerland).

T1 sequence (P01116 1-188 isoform P01116-2 G12C): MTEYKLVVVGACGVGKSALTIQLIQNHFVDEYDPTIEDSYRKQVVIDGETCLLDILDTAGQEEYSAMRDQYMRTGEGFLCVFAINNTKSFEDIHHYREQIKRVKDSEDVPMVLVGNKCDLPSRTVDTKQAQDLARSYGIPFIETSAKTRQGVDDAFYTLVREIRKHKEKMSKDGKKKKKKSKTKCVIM

Row | Compound | pIC50
1 | C=CC(=O)N1CCN2c3c(cnc4cc(-c5c(C)ccc6[nH]c(=O)[nH]c56)c(Cl)cc34)OC[C@H]2C1 (single isomer, unassigned) [Compound 72] | 5.08
2 | C=CC(=O)N1CCN2c3c(cnc4c(C)c(-c5c(O)cccc5F)c(C)cc34)N(C)C(=O)[C@H]2C1 (single isomer, unassigned) [Compound 43] | < 4.00
3 | C=CC(=O)N1CCN2c3c(cnc4c(F)c(-c5c(O)cccc5F)c(Cl)cc34)OC[C@H]2C1 (single isomer, unassigned) [Example 8] | 5.07
4 | C=CC(=O)N1CCN2c3c(cnc4c(F)c(-c5c(C)ccc6[nH]cnc56)c(Cl)cc34)OC[C@H]2C1 (single isomer, unassigned) [Compound 78] | 5.15
5 | C=CC(=O)N1CCN2c3c(cnc4c(C)c(-c5c(O)cccc5F)c(C)nc34)N(C)C(=O)[C@H]2C1 (single isomer, unassigned) [Compound 91] | 4.45
6 | C=CC(=O)N1CCN2c3c(cnc4c(OC)c(-c5c(O)cccc5F)c(Cl)cc34)OC[C@H]2C1 (single isomer, unassigned) [Compound 23] | 5.38
7 | C=CC(=O)N1CCN2c3c(cnc4c(F)c(-c5c(O)ccc6ccccc56)c(Cl)cc34)N(C)C(=O)[C@H]2C1 (single isomer, unassigned) [Compound 55] | 5.23
8 | C=CC(=O)N1CCN2c3c(cnc4c(F)c(-c5c(O)cccc5Cl)c(Cl)cc34)N(C)C(=O)[C@H]2C1 (single isomer, unassigned) [Compound 51] | < 4.00
9 | C=CC(=O)N1C[C@@H]2C(=O)N(C)c3cnc4c(F)c(-c5c(C)ccc6[nH]cnc56)c(Cl)cc4c3N2C[C@H]1C (single isomer, unassigned) [Compound 27] | 5.06
10 | C=CC(=O)N1CCN2c3c(cnc4c(Cl)c(-c5c(O)cccc5F)c(F)cc34)N(C)C(=O)[C@H]2C1 (single isomer, unassigned) [Compound 80] | 4.83
11 | C=CC(=O)N1CCN2c3c(cnc4cc(-c5c(C)ccc6[nH]ncc56)c(Cl)cc34)OC[C@H]2C1 (single isomer, unassigned) [Example 4] | 5.77
12 | C=CC(=O)N1CCN2c3c(cnc4c(F)c(-c5c(C)ccc6c5C(=O)NC6)c(Cl)cc34)OC[C@H]2C1 (single isomer, unassigned) [Compound 87] | 5.07
13 | C=CC(=O)N1CCN2c3c(cnc4c(F)c(-c5c(C)cccc5O)c(Cl)cc34)N(C)C(=O)[C@H]2C1 (single isomer, unassigned) [Compound 53] | 4.42
14 | C[C@@H]1CN2c3c(cnc4c(F)c(-c5c(O)cccc5F)c(Cl)cc34)OC[C@H]2CN1C(=O)/C=C/CN(C)C (single isomer, unassigned) [Compound 36] | 4.55
15 | C=CC(=O)N1CCN2c3c(cnc4cc(-c5c(C)ccc6[nH]ncc56)c(Cl)cc34)OC[C@@H]2C1 (single isomer, unassigned) [Example 5] | 5.24
16 | C=CC(=O)N1CCN2c3c(cnc4c(F)c(-c5c(O)ccc(F)c5F)c(Cl)cc34)N(C)C(=O)[C@H]2C1 (single isomer, unassigned) [Compound 57] | 5.05
17 | C=CC(=O)N1CCN2c3c(cnc4c(F)c(-c5c(C)ccc6[nH]ncc56)c(Cl)cc34)N(C)C(=O)[C@H]2C1 (single isomer, unassigned) [Compound 50] | 5.02
18 | C=CC(=O)N1CCN2c3c(cnc4cc(-c5c(C)ccc6[nH]ncc56)c(Cl)cc34)N(CCN(C)C)C[C@H]2C1 (single isomer, unassigned) [Compound 74] | 4.88

Results, then the compound that gave them:

Row | pIC50 | Compound
19 | 7.24 | C=CC(=O)N1CCN2c3c(cnc4cc(-c5c(C)ccc6[nH]ncc56)c(Cl)cc34)N(CCN(C)C)C[C@H]2C1 (single isomer, unassigned) [Compound 73]
20 | 7.85 | C=CC(=O)N1CCN2c3c(cnc4c(F)c(-c5c(O)cccc5Cl)c(Cl)cc34)N(C)C(=O)[C@H]2C1 (single isomer, unassigned) [Compound 52]
21 | 7.25 | C=CC(=O)N1CCN2c3c(cnc4c(F)c(-c5c(O)ccc6ccccc56)c(Cl)cc34)N(C)C(=O)[C@H]2C1 (single isomer, unassigned) [Compound 56]
22 | 5.72 | C=CC(=O)N1C[C@@H]2COc3cnc4c(F)c(-c5c(O)cccc5F)c(F)cc4c3N2C[C@H]1C (single isomer, unassigned) [Compound 63]
23 | 8.00 | C=CC(=O)N1CCN2c3c(cnc4c(F)c(-c5c(C)ccc6[nH]c(=O)n(C)c56)c(Cl)cc34)OC[C@H]2C1 (single isomer, unassigned) [Compound 85]
24 | 6.48 | C=CC(=O)N1CCN2c3c(cnc4cc(-c5c(O)cccc5F)c(Cl)cc34)N(CC)C(=O)[C@H]2C1 [Compound 90, (4aR)-11-Chloro-6-ethyl-10-(2-fluoro-6-hydroxyphenyl)-3-(prop-2-enoyl)-2,3,4,4a-tetrahydro-1H-pyrazino[1′,2′:4,5]pyrazino[2,3-c]quinolin-5(6H)-one]
25 | 6.88 | C=CC(=O)N1CCN2c3c(cnc4c(F)c(-c5c(F)cccc5CO)c(Cl)cc34)N(C)C(=O)[C@H]2C1 (single isomer, unassigned) [Compound 35]
26 | 5.66 | C=CC(=O)N1CCN2c3c(cnc4cc(-c5c(O)cccc5F)c(Cl)cc34)N(C)C(=O)C2(C)C1 (single isomer, unassigned) [Compound 32, 11-Chloro-10-(2-fluoro-6-hydroxyphenyl)-4a,6-dimethyl-3-(prop-2-enoyl)-2,3,4,4a-tetrahydro-1H-pyrazino[1′,2′:4,5]pyrazino[2,3-c]quinolin-5(6H)-one]
27 | 5.44 | C=CC(=O)N1CCN2c3c(cnc4c(F)c(-c5c(O)cccc5F)c(Cl)cc34)NC(=O)[C@H]2C1 (single isomer, unassigned) [Compound 89]
28 | 7.60 | C[C@@H]1CN2c3c(cnc4c(F)c(-c5c(O)cccc5F)c(Cl)cc34)N(C)C(=O)[C@H]2CN1C(=O)/C=C/CN(C)C (single isomer, unassigned) [Compound 29]
29 | 5.34 | C=CC(=O)N1C[C@@H]2C(=O)Nc3cnc4c(F)c(-c5c(O)cccc5F)c(Cl)cc4c3N2C[C@H]1C (single isomer, unassigned) [Compound 30]
30 | 6.85 | C=CC(=O)N1CCN2c3c(cnc4c(Cl)c(-c5c(O)cccc5F)c(F)cc34)N(C)C(=O)[C@H]2C1 (single isomer, unassigned) [Compound 79]
31 | 7.51 | C=CC(=O)N1CCN2c3c(cnc4c(F)c(-c5c(C)ccc6[nH]c(=O)oc56)c(Cl)cc34)OC[C@H]2C1 (single isomer, unassigned) [Compound 47]
32 | 6.85 | C=CC(=O)N1CCN2c3c(cnc4c(C)c(-c5c(O)cccc5F)c(C)cc34)N(C)C(=O)[C@H]2C1 (single isomer, unassigned) [Compound 44]
33 | 7.55 | C=CC(=O)N1CCN2c3c(cnc4c(F)c(-c5c(C)ccc6[nH]cnc56)c(Cl)cc34)N(C)C(=O)[C@H]2C1 (single isomer, unassigned) [Compound 25]
34 | 7.70 | C=CC(=O)N1C[C@@H]2COc3cnc4c(F)c(-c5c(O)cccc5F)c(F)cc4c3N2C[C@H]1C (single isomer, unassigned) [Compound 64]
35 | 8.52 | C=CC(=O)N1C[C@@H]2C(=O)N(C)c3cnc4c(F)c(-c5c(C)ccc6[nH]cnc56)c(Cl)cc4c3N2C[C@H]1C (single isomer, unassigned) [Compound 28]
36 | 8.40 | C=CC(=O)N1C[C@@H]2C(=O)Nc3cnc4c(F)c(-c5c(O)cccc5F)c(Cl)cc4c3N2C[C@H]1C (single isomer, unassigned) [Compound 31]
37 | 7.40 | C=CC(=O)N1CCN2c3c(cnc4c(F)c(-c5c(C)cccc5O)c(Cl)cc34)N(C)C(=O)[C@H]2C1 (single isomer, unassigned) [Compound 54]
38 | 6.69 | C=CC(=O)N1CCN2c3c(cnc4cc(-c5c(O)cccc5F)c(Cl)c(F)c34)N(C)C(=O)[C@H]2C1 [Compound 59, (4aR)-11-Chloro-12-fluoro-10-(2-fluoro-6-hydroxyphenyl)-6-methyl-3-(prop-2-enoyl)-2,3,4,4a-tetrahydro-1H-pyrazino[1′,2′:4,5]pyrazino[2,3-c]quinolin-5(6H)-one]
39 | 6.30 | C=CC(=O)N1CCN2c3c(cnc4cc(-c5c(O)cccc5F)c(Cl)c(Cl)c34)N(C)C(=O)[C@H]2C1 [Compound 60, (4aR)-11,12-Dichloro-10-(2-fluoro-6-hydroxyphenyl)-6-methyl-3-(prop-2-enoyl)-2,3,4,4a-tetrahydro-1H-pyrazino[1′,2′:4,5]pyrazino[2,3-c]quinolin-5(6H)-one]
40 | 7.11 | C=CC(=O)N1CCN2c3c(cnc4c(F)c(-c5c(O)cccc5F)c(F)cc34)N(C)C(=O)[C@H]2C1 [Compound 42, (4aR)-3-Acryloyl-9,11-difluoro-10-(2-fluoro-6-hydroxyphenyl)-6-methyl-2,3,4,4a-tetrahydro-1H-pyrazino[1′,2′:4,5]pyrazino[2,3-c]quinolin-5(6H)-one]
41 | 5.62 | C=CC(=O)N1CCN2c3c(cnc4c(F)c(-c5c(C)ccc6[nH]c(=O)n(C)c56)c(Cl)cc34)OC[C@H]2C1 (single isomer, unassigned) [Compound 84]
42 | 7.43 | C=CC(=O)N1CCN2c3c(cnc4c(F)c(-c5c(O)cccc5C(F)F)c(Cl)cc34)N(C)C(=O)[C@H]2C1 (single isomer, unassigned) [Compound 62]
43 | 6.03 | C#Cc1cc2c3c(cnc2cc1-c1c(C)ccc2[nH]ncc12)OC[C@H]1CN(C(=O)C=C)CCN31 (single isomer, unassigned) [Compound 76]
